Counter-ions that a name gives are not always drawn.

Data on two compounds can be found in patent publication US20240174663A1, “PYRIMIDINE OR PYRIDINE DERIVATIVES USEFUL AS HCN2 MODULATORS” (King's College London, priority 2021, published 2024).

The nature of data set [1]: Evaluation of CNS penetration: ivabradine in plasma, brain and auditory nerve. The class given is in vivo. The note with it: guinea pig, brain (somatosensory cortex) / plasma, other: injection; 30 min after injection; read-out: amount detected in brain, % of plasma level. The source says: Ratios of total concentrations in preliminary experiments for plasma:brain:auditory nerve were 1:0.12:0.57 (n=2). The small amount (12% of plasma level) detected in brain is largely accounted for by the presence of ivabradine within the vascular supply of the brain. […] Pain 155, 1708-1719, (2014).

Data set [2] deals with mouse model of diabetic neuropathy. As to conditions: in vivo; cited from earlier work.
The test system of data set [3] is mouse models of neuropathic pain. As to conditions: nerve injury, cancer chemotherapy and diabetic neuropathy models; cited from earlier work.
Data set [4] deals with guinea pigs with salicylate-induced tinnitus. The data set is described as follows: Short-term (salicylate) tinnitus model, gap induced inhibition of the acoustic startle (GPIAS) test. It is filed as in vivo, guinea pig. As to conditions: 5 mg/kg s.c.; salicylate 350 mg/kg i.p., 2 h. The source says:
(§1) Tinnitus in guinea pigs was monitored using the gap induced inhibition of the acoustic startle (GPIAS) test (see FIG. 4). GPIAS is reduced when tinnitus was present; see Berger, J. I. et al. Effects of the cannabinoid CB1 agonist ACEA on salicylate ototoxicity, hyperacusis and tinnitus in guinea pigs. Hearing research, (2017), and Coomber, B. et al. Neural changes accompanying tinnitus following unilateral acoustic trauma in the guinea pig. Eur J Neurosci 40, 2427-2441, (2014).
In FIG. 4, sound stimulus (above) and corresponding pinna reflex (below) are shown in freely moving guinea pigs. Stimuli with no gap and gap are presented in a randomised order. Traces contaminated by movement (the upper trace in “no gap”) were removed before analysis.
Tinnitus was induced within 1-2 hours in humans by high doses of salicylate. A similar short-term tinnitus model was implemented in guinea pigs by i.p. injection of salicylate. In all animals, salicylate caused behavioural inhibition of GPIAS (see bar 2 in FIG. 5).
Salicylate (350 mg/kg, i.p.) impairs behavioural gap detection 2 h after salicylate administration (see bar 2 in of FIG. 5). Gap detection was restored by blocking HCN channels with ivabradine (5 mg/kg, s.c.).

The test system of data set [5] is mice (hearing thresholds). The class given is in vivo. As to conditions: adult mice, tone pulses 3 kHz to 42 kHz; 20 mg/kg ip.
Data set [6] concerns guinea pigs with noise-exposure induced tinnitus. The experiment in a line: Noise-exposure tinnitus model, GPIAS test. The class given is in vivo, guinea pig.
Excerpt: as §1
The noise-exposure model is more clinically relevant than the salicylate model, as it parallels a common cause of tinnitus in humans. A second important point is that it is long-term, while tinnitus induced by salicylate is rapidly reversed following salicylate exposure.
GPIAS returns following drug wash-out (see bar D in FIG. 6).

Data set [7] deals with T1, HCN4 (Homo sapiens, UniProt Q9Y3Q4).
T1 sequence (Q9Y3Q4 1-1203): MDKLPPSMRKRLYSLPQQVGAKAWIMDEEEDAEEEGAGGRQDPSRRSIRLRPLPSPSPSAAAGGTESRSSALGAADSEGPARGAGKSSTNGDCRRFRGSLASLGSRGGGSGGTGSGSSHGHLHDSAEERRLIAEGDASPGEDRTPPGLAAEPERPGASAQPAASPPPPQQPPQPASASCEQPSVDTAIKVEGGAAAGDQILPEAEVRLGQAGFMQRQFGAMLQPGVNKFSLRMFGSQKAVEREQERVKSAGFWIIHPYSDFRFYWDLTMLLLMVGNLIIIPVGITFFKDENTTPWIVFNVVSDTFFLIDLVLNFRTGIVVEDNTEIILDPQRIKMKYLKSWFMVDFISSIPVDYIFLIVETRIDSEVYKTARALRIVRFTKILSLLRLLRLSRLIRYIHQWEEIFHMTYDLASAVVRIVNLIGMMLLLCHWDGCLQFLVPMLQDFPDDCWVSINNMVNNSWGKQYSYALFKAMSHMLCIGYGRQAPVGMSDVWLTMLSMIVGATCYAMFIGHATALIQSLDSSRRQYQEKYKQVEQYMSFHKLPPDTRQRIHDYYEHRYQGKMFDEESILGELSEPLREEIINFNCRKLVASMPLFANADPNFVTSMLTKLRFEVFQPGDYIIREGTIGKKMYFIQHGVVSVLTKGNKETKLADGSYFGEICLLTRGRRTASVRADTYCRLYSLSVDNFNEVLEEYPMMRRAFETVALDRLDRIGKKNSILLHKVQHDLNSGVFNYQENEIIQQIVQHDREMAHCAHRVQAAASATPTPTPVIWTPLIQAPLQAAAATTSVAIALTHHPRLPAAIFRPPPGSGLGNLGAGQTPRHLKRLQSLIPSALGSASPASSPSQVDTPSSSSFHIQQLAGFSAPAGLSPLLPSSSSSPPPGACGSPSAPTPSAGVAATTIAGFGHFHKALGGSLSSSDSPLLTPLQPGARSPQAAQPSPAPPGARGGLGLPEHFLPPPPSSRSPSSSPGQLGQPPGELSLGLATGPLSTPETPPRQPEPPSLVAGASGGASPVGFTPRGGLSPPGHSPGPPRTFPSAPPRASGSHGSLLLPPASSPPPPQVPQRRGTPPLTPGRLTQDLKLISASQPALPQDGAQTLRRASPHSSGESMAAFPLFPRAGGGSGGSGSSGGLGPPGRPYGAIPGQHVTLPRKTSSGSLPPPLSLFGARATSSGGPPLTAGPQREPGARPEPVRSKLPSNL
The experiment in a line: HCN4 assay using PatchXpress 7000A (PX protocol, Example 25). The class given is cell-based. As to conditions: room temperature. As for the experimental part:
Example 25: Assay for HCN1 HCN2 and HCN4 Using PatchXpress 7000A
Solutions for recording HCN currents were:
The peak inward current measured at the end of the pulse to −110 mV (HCN1 and HCN2) or −130 mV (HCN4) was measured and any leak current subtracted to calculate the HCN current. The HCN current amplitude was measured after each control or compound addition and normalized to the control amplitude (Control A).
All experiments were performed at room temperature (approximately 22° C.).
Each test compound concentration was applied to the cell for seven (7) minutes, at which point the next cumulative concentration was applied.

Data set [8] concerns WT Black6 strain mice. The experiment in a line: Mouse neuropathic pain model (partial sciatic nerve ligation), von Frey filament. The class given is in vivo. As for the experimental part: The model used was analogous to the model described in Seltzer Z, Dubner […] novel behavioural model of neuropathic pain disorders produced in rats by partial sciatic nerve injury, Pain 43: 205-218). […] Sci Transl Med 9: eaam6072. […] The mechanical pain threshold was measured by manual von Frey filament applied to the hind paw on the operated side, using the “up-down” method.

Turning to `COc1cc2c(cc1OC)CC(=O)N(CCCN(C)C[C@H]1Cc3cc(OC)c(OC)cc31)CC2` [ivabradine], the Kp at 30 min in data set [1] worked out at 0.12. The “analgesia in mouse model of diabetic neuropathy” value in data set [2] is reported as “complete analgesia”. For the same compound, the “analgesia in mouse models of neuropathic pain” value in data set [3] is given as “effective analgesic”. Further, the “behavioural gap detection (GPIAS) after salicylate” value in data set [4] is given as “restored”. Moreover, in data set [5], the “ABR threshold or latency versus untreated” value is given as “no significant difference in ABR threshold or latency”. For the same compound, the “reduced GPIAS following noise exposure” value in data set [6] (5 mg/kg s.c., unilateral noise exposure 110 dB, 1 h, 8 weeks prior) was “rapidly and completely reversed”. For the same compound, the “effect on GPIAS in noise-exposed guinea pigs showing no behavioural evidence of tinnitus” value in data set [6] (control experiments, n=3) is listed as “without effect”.

Usually IC50 stands for the concentration at which inhibition is half-maximal. Low values mean higher potency, high ones lower potency. For `Cc1ccc(C#N)nc1C[C@H](N)c1ncccc1-c1noc2ccccc12` [Example 4, (S)-6-{2-Amino-2-[3-(benzo[d]isoxazol-3-yl)pyridine-2-yl]ethyl}-5-methylpyridin-2-carbonitrile hydrochloride], in data set [7], half-maximal inhibition (IC50) required 5.2 µM. The “mechanical analgesic effect (mechanical pain threshold, von Frey)” value in data set [8] (1 mg/kg i.p., day 5 after partial sciatic nerve ligation, operated hind paw) is “full analgesia”. Further, in data set [8] (i.p., mice after partial sciatic nerve ligation), the “hyperalgesia in contralateral (unoperated) hind paw” value is reported as “No hyperalgesia observed”.
